# Test results published in patent EP4389156A1, “RA[…] LIGAND COMPOUNDS AND PRECURSORS THEREOF” (Technische Universität München, priority 2022, dated 2024).
# Where “and” joins values, the source holds several entries; their conditions need not be identical. Identical values can stand only once.
# Columns and labels:
# [1] = test system: LNCaP tumor-bearing CB17-SCID mice; assay: Biodistribution study in LNCaP tumor-bearing mice; type: in vivo
# Method: All animal experiments were conducted in accordance with general animal welfare regulations in Germany (German animal protection act, in the edition of the announcement, dated May 18th, 2006, as amended by Article 280 of June 19th 2020, approval no. ROB-55.2-1-2532.Vet_02-18-109 by the General Administration of Upper Bavaria) and the institutional guidelines for the care and use of animals. Male CB17-SCID mice were purchased from Charles River (Sulzfeld, Germany) and arrived at the in-house animal facility to acclimate at least 1 week before the start of the experiment. Tumor xenografts were established by subcutaneous inoculation of LNCaP cells (approx. 2 × 10^7 cells in 200 µL of a 1:1 mixture of Cultrex BME (R&D Systems, Minneapolis, United States) and DMEM/Ham's F-12) onto the right shoulder of 6-8 weeks old male CB17-SCID mice. The animals were used for experiments when tumors had grown to a size of 5-10 mm in diameter. Criteria for the exclusion of animals from the experiment were weight loss higher than 20%, tumor size above 1.5 cm^3, ulceration of the tumor, respiratory distress or change of behavior. […] Neither randomisation nor blinding was applied in the allocation of the experiments. Quarterly health monitoring was performed according to the FELASA recommendations.
# Biodistribution Studies. The ^99mTc-labeled radioligands (2.7 ± 0.7 MBq, 82 ± 20 pmol) were injected into a lateral tail vein of LNCaP-tumor bearing mice (n = 4-5) under isoflurane anesthesia. Animals were sacrificed at 6 h post injection (p.i.) by carbon dioxide inhalation and blood withdrawal via cardiac puncture. Blood and tissues of interest were collected, weighed and the activity measured in a γ-counter. Radioligand uptake is given in percent of the injected dose per gram of tissue (% ID/g) and results are presented as mean ± SD.
# In line with the above, the biodistribution study of [^99mTc]Tc-N4-PSMA-21 was carried out with n = 5 animals ("data set I"). […] Kidney uptake of mouse #3 (36.17 %ID/g) exceeded the value obtained from the other four animals (4.58 ± 1.44 %ID/g, mean ± SD) 7.9-fold or by more than 20 standard deviations. In addition, tumor uptake of mouse #3 (21.92 %ID/g) exceeded the value obtained from the other four animals (11.02 ± 2.22 %ID/g, mean ± SD) 2.0-fold or by more than 4 standard deviations Due to the uncertainty whether these huge deviations arise from an experimental error or might be related to strongly deviating metabolic processes e.g. abnormal kidney function in mouse #3, the study primarily presents and discusses the data set based on the other four animals (n = 4, "data set II"). A thorough evaluation and comparison was, however, also carried out including mouse #3.
# PSMA = biological target: T1, PSMA (Homo sapiens, UniProt Q04609); assay: Competitive binding study, inverse IC50 (99mTc-radioligand versus increasing IBA-KuE); conditions: inverse IC50: IBA-KuE competes against 99mTc-radioligand (0.2 nM/well); higher values = higher affinity; 1 h, 4°C, n = 3, mean ± SD; read-out: IC50, inv.
# T1 construct: endogenous in cells; printed for the internalization assay of the same paragraph
# Method: Competitive binding studies were carried out in analogy to a previously reported procedure. As a modification the non-radiolabeled standard competitor (((S)-1-carboxy-5-(4-(iodo)benzamido)pentyl)carbamoyl)-L-glutamic acid (IBA-KuE) was applied in increasing concentrations (10^-5 - 10^-11 M/well, n = 3 each) whereas the novel PSMA-binding compounds of interest were applied as ^99mTc-labeled radioligands (0.2 nM/well). In this inversed experimental approach, higher values correspond to higher affinities and are referred to as inverse IC50. Poly-L-lysine coated 24-well plates were used (n = 3). Data are given as mean ± SD. To determine the cellular uptake of the ^99mTc-labeled PSMA ligands into LNCaP cells by means of PSMA-mediated internalization at 1 h, a previously reported protocol was applied with assay concentrations of 1.0 nM and 0.2 nM for ^99mTc-labeled PSMA ligands and the reference compound [^125I]IBA-KuE, respectively. Data are corrected for non-specific binding and normalized to the specific internalization of the reference. Results are given as mean ± SD.
# [2] = biological target: T2, human serum albumin (HSA) (Homo sapiens, UniProt P02768); assay: HSA binding by high performance affinity chromatography (HPAC); type: in vitro ADME; conditions: uncomplexed compounds, n = 1
# T2 construct: purchased Daicel, Tokyo, Japan H13H-2433
# Method: HSA binding of the uncomplexed PSMA ligands was determined according to a previously published procedure via HPLC (Valko, K.; Nunhuck, S.; Bevan, C.; Abraham, M. H.; Reynolds, D. P., Fast gradient HPLC method to determine compounds binding to human serum albumin. Relationships with octanol/water and immobilized artificial membrane lipophilicity. J Pharm Sci. 2003, 92, 2236-2248). A Chiralpak HSA column (50 × 3 mm, 5 µm, H13H-2433, Daicel, Tokyo, Japan) was used at a constant flow rate of 0.5 mL/min at rt. Mobile phase A was a freshly prepared 50 mM aqueous solution of NH4OAc (pH 6.9) and mobile phase B was isopropanol (HPLC grade, VWR). The applied gradient for all experiments was 100% A (0 to 3 min), followed by 80% A (3 to 40 min). Prior to the experiment, the column was calibrated using nine reference substances with a HSA binding, known from literature, in the range of 13 to 99% (Valko, K.; Nunhuck, S.; Bevan, C.; Abraham, M. H.; Reynolds, D. P., J Pharm Sci. 2003, 92, 2236-2248; Yamazaki, K.; Kanaoka, M., Computational prediction of the plasma protein-binding percent of diverse pharmaceutical compounds. J Pharm Sci. 2004, 93, 1480-1494). All substances, including the examined PSMA ligands, were dissolved in a 1:1 mixture (v/v) of isopropanol and a 50 mM aqueous solution of NH4OAc (pH 6.9) with a final concentration of 0.5 mg/mL. Non-linear regression was established with the OriginPro 2016G software (Northampton, United States).
# [3] = 6 h p.i., male LNCaP tumor-bearing CB17-SCID mice, mean, n = 4-5
# [4] = 6 h p.i., mean of ratios of individual animals, n = 4-5
# [5] = 6 h p.i., relative to [^99mTc]Tc-PSMA-I&S
# T1 sequence (Q04609 whole entry): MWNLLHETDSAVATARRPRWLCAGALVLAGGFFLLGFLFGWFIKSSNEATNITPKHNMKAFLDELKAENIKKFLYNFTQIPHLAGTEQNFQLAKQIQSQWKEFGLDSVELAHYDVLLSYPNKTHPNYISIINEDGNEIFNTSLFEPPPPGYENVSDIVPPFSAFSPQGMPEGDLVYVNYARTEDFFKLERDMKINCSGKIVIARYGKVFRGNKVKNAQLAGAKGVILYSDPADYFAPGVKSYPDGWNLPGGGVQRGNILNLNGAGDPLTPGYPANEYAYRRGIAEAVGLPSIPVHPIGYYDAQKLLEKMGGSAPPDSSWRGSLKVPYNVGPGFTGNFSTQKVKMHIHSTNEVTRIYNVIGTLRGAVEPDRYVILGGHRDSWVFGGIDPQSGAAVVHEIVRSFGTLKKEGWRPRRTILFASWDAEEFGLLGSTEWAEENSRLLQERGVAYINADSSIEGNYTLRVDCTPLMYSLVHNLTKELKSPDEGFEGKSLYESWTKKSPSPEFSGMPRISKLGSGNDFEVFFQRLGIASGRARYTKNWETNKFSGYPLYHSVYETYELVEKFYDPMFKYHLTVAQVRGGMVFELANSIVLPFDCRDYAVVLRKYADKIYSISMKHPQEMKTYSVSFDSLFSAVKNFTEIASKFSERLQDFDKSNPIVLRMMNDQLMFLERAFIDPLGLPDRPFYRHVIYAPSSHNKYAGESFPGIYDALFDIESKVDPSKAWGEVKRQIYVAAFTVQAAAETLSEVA
# T2 sequence (P02768 25-609): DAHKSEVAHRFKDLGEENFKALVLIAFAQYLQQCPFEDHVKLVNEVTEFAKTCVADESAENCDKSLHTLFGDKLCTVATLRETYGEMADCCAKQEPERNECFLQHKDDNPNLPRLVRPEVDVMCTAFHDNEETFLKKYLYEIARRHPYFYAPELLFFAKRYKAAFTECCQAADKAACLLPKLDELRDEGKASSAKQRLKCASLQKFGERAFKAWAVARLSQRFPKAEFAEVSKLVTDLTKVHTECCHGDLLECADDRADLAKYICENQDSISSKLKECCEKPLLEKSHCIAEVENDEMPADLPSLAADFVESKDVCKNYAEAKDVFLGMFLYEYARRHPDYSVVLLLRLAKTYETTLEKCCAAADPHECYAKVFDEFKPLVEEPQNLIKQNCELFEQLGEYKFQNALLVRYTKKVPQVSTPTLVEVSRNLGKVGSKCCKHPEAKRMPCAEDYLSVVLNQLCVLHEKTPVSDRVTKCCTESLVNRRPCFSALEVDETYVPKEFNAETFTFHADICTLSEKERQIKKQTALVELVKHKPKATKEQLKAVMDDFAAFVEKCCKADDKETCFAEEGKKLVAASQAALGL
smiles,measurement,setting,value
CC(C)(C)[Si](O)(c1ccc(C(=O)NC[C@@H](NC(=O)[C@@H](CCC(=O)O)NC(=O)C(CNCCN)CNCCN)C(=O)N[C@H](CCCCNC(=O)CCC(=O)NCCC[C@@H](NC(=O)CC[C@H](NC(=O)N[C@@H](CCC(=O)O)C(=O)O)C(=O)O)C(=O)O)C(=O)O)cc1)C(C)(C)C.[O]=[99Tc+]=[O] [[^99mTc]Tc-N4-PSMA-12],uptake in % iD/g adrenals,[1]; [3],0.6570 % ID/g
same,uptake in % iD/g blood,[1]; [3],0.0200 ± 0.0044 % ID/g and 0.0200 % ID/g
same,uptake in % iD/g bone,[1]; [3],0.0365 % ID/g
same,uptake in % iD/g heart,[1]; [3],0.0274 % ID/g
same,uptake in % iD/g intestine,[1]; [3],0.5391 % ID/g
same,uptake in % iD/g kidney,[1]; [3],12.3 ± 8.0 % ID/g and 12.2924 % ID/g
same,uptake in % iD/g liver,[1]; [3],0.1796 % ID/g
same,uptake in % iD/g lung,[1]; [3],0.0613 % ID/g
same,uptake in % iD/g muscle,[1]; [3],0.0110 % ID/g
same,uptake in % iD/g pancreas,[1]; [3],0.0206 % ID/g
same,uptake in % iD/g parotid gland,[1]; [3],0.0804 % ID/g
same,uptake in % iD/g spleen,[1]; [3],0.8928 % ID/g
same,uptake in % iD/g stomach,[1]; [3],0.0988 % ID/g
same,uptake in % iD/g submandibular gland,[1]; [3],0.1450 % ID/g
same,uptake in % iD/g tumor,[1]; [3],13.0231 % ID/g
same,tumor-to-background ratio adrenals,[1]; [4],22.15
same,tumor-to-background ratio blood,[1]; [4],658 ± 147 and 657.74
same,tumor-to-background ratio bone,[1]; [4],384.40
same,tumor-to-background ratio heart,[1]; [4],484.90
same,tumor-to-background ratio intestine,[1]; [4],57.76
same,tumor-to-background ratio kidney,[1]; [4],1.64 ± 1.29 and 1.64
same,tumor-to-background ratio liver,[1]; [4],79.92
same,tumor-to-background ratio lung,[1]; [4],216.68
same,tumor-to-background ratio muscle,[1]; [4],1265.34
same,tumor-to-background ratio pancreas,[1]; [4],637.21
same,tumor-to-background ratio parotid gland,[1]; [4],177.38
same,tumor-to-background ratio spleen,[1]; [4],17.89
same,tumor-to-background ratio stomach,[1]; [4],158.87
same,tumor-to-background ratio submandibular gland,[1]; [4],90.45
same,fold T/blood-ratio in comparison with [^99mTc]Tc-PSMA-I&S,[1]; [5],3 fold
same,fold T/kidney-ratio in comparison with [^99mTc]Tc-PSMA-I&S,[1]; [5],20 fold
same,fold decrease of blood activity at 6 h p.i.,[1]; relative to [^99mTc]Tc-PSMA-I&S,3.6 fold
same,inverse IC50,PSMA,11 ± 2.8 nM
same,HSA-binding (HPAC) (%),[2],47.7%
